In the NIST ThermoML archive (doi:10.1021/acs.jced.8b00201):

Key:
[1] = 100 kPa, Liquid; for viscosity: Concentric cylinders viscometry; for mass density: Vibrating tube method
[2] = xn = mol fraction of the nth substance listed; details: 100 kPa, Liquid; for viscosity: Concentric cylinders viscometry; for mass density: Vibrating tube method

CCCCCCO [hexan-1-ol]
[1]
Details | mass density [kg/m3] | viscosity [mPa·s]
293.15 K | 818.7 | 5.37
298.15 K | 815.1 | 4.58
303.15 K | 811.5 | 3.94
308.15 K | 807.9 | 3.4
313.15 K | 804.2 | 2.95
318.15 K | 800.6 | 2.58
323.15 K | 796.8 | 2.26

O=C1CCCCC1 [cyclohexanone]
[1]
Details | mass density [kg/m3] | viscosity [mPa·s]
293.15 K | 948.8 | 2.3
298.15 K | 943.1 | 2.09
303.15 K | 938.2 | 1.91
308.15 K | 933.5 | 1.75
313.15 K | 928.8 | 1.6
318.15 K | 924.4 | 1.46
323.15 K | 920.7 | 1.34

CCCCCCCCCCO [decan-1-ol] + O=C1CCCCC1
[2], x2 = 0
Details | mass density [kg/m3] | viscosity [mPa·s]
293.15 K | 829.5 | 14.42
298.15 K | 826.1 | 11.8
303.15 K | 822.7 | 9.76
308.15 K | 819.3 | 8.14
313.15 K | 815.8 | 6.84
318.15 K | 812.4 | 5.8
323.15 K | 808.9 | 4.96

CCCCCCCCO [octan-1-ol]
[1]
Details | mass density [kg/m3] | viscosity [mPa·s]
293.15 K | 824.9 | 9.13
298.15 K | 821.4 | 7.62
303.15 K | 817.9 | 6.41
308.15 K | 814.4 | 5.43
313.15 K | 810.9 | 4.63
318.15 K | 807.3 | 3.98
323.15 K | 803.7 | 3.4

CCCCCO [pentan-1-ol] + O=C1CCCCC1
[2], x2 = 0
Details | mass density [kg/m3] | viscosity [mPa·s]
293.15 K | 814.5 | 4.03
298.15 K | 810.8 | 3.49
303.15 K | 807.1 | 3.04
308.15 K | 803.3 | 2.65
313.15 K | 799.6 | 2.32
318.15 K | 795.8 | 2.05
323.15 K | 792 | 1.81

O=C1CCCCC1 [cyclohexanone] + CCCCCCCO
[2], x1 = 1
Details | mass density [kg/m3] | viscosity [mPa·s]
293.15 K | 948.8 | 2.3
298.15 K | 943.1 | 2.09
303.15 K | 938.2 | 1.91
308.15 K | 933.5 | 1.75
313.15 K | 928.8 | 1.6
318.15 K | 924.4 | 1.46
323.15 K | 920.7 | 1.34

CCCCCCCO [heptan-1-ol]
[1]
Details | mass density [kg/m3] | viscosity [mPa·s]
293.15 K | 822.2 | 7.03
298.15 K | 818.7 | 5.92
303.15 K | 815.2 | 5.03
308.15 K | 811.6 | 4.3
313.15 K | 808 | 3.71
318.15 K | 804.4 | 3.21
323.15 K | 800.7 | 2.79

O=C1CCCCC1 [cyclohexanone] + CCCCCCCCCO
[2], x1 = 1
Details | mass density [kg/m3] | viscosity [mPa·s]
293.15 K | 948.8 | 2.3
298.15 K | 943.1 | 2.09
303.15 K | 938.2 | 1.91
308.15 K | 933.5 | 1.75
313.15 K | 928.8 | 1.6
318.15 K | 924.4 | 1.46
323.15 K | 920.7 | 1.34

CCCCCCO [hexan-1-ol] + O=C1CCCCC1
[2], x2 = 0
Details | mass density [kg/m3] | viscosity [mPa·s]
293.15 K | 818.7 | 5.37
298.15 K | 815.1 | 4.58
303.15 K | 811.5 | 3.94
308.15 K | 807.9 | 3.4
313.15 K | 804.2 | 2.95
318.15 K | 800.6 | 2.58
323.15 K | 796.8 | 2.26

CCCCCCCCCO [nonan-1-ol]
[1]
Details | mass density [kg/m3] | viscosity [mPa·s]
293.15 K | 827.5 | 11.41
298.15 K | 824 | 9.43
303.15 K | 820.5 | 7.86
308.15 K | 817.1 | 6.61
313.15 K | 813.6 | 5.6
318.15 K | 810.1 | 4.78
323.15 K | 806.5 | 4.1

CCCCCCCCO [octan-1-ol] + O=C1CCCCC1
[2], x2 = 0
Details | mass density [kg/m3] | viscosity [mPa·s]
293.15 K | 824.9 | 9.13
298.15 K | 821.4 | 7.62
303.15 K | 817.9 | 6.41
308.15 K | 814.4 | 5.43
313.15 K | 810.9 | 4.63
318.15 K | 807.3 | 3.98
323.15 K | 803.7 | 3.4

CCCCCO [pentan-1-ol]
[1]
Details | mass density [kg/m3] | viscosity [mPa·s]
293.15 K | 814.5 | 4.03
298.15 K | 810.8 | 3.49
303.15 K | 807.1 | 3.04
308.15 K | 803.3 | 2.65
313.15 K | 799.6 | 2.32
318.15 K | 795.8 | 2.05
323.15 K | 792 | 1.81

CCCCCCCCCCO [decan-1-ol]
[1]
Details | mass density [kg/m3] | viscosity [mPa·s]
293.15 K | 829.5 | 14.42
298.15 K | 826.1 | 11.8
303.15 K | 822.7 | 9.76
308.15 K | 819.3 | 8.14
313.15 K | 815.8 | 6.84
318.15 K | 812.4 | 5.8
323.15 K | 808.9 | 4.96
